The source of these data is patent US12065436B2, “Cardiac sarcomere inhibitors” (Cytokinetics, Inc., priority 2018, dated 2024).

For this test, the target named is bovine cardiac myofibrils (full-length cardiac myosin ATPase in the native sarcomere) (Bos taurus (Bovine), UniProt Q9BE39). The experiment in a line: Skinned bovine cardiac myofibril ATPase assay (PK/LDH-coupled). The format is biochemical. The settings on record: Ca2+ activating to 75% of maximal rate; for CDMF75 IC15: concentration giving 15% inhibition; for pIC50: read-out: CDMF75 IC50. Put shortly: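 Inhibition of steady-state ATPase read at 340 nm through a PK/LDH-coupled NADH system (0.5 mM NADH, 1.5 mM PEP). Detergent-skinned bovine cardiac myofibrils, 1 mg/mL, were tested at pH 6.8 in PIPES/MgCl2 with 50 μM ATP and calcium adjusted to give pCa50 or pCa75 activation.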

pIC50: −log10 of the molar value.

bovine cardiac myofibrils (full-length cardiac myosin ATPase in the native sarcomere), sequence (Q9BE39 whole entry): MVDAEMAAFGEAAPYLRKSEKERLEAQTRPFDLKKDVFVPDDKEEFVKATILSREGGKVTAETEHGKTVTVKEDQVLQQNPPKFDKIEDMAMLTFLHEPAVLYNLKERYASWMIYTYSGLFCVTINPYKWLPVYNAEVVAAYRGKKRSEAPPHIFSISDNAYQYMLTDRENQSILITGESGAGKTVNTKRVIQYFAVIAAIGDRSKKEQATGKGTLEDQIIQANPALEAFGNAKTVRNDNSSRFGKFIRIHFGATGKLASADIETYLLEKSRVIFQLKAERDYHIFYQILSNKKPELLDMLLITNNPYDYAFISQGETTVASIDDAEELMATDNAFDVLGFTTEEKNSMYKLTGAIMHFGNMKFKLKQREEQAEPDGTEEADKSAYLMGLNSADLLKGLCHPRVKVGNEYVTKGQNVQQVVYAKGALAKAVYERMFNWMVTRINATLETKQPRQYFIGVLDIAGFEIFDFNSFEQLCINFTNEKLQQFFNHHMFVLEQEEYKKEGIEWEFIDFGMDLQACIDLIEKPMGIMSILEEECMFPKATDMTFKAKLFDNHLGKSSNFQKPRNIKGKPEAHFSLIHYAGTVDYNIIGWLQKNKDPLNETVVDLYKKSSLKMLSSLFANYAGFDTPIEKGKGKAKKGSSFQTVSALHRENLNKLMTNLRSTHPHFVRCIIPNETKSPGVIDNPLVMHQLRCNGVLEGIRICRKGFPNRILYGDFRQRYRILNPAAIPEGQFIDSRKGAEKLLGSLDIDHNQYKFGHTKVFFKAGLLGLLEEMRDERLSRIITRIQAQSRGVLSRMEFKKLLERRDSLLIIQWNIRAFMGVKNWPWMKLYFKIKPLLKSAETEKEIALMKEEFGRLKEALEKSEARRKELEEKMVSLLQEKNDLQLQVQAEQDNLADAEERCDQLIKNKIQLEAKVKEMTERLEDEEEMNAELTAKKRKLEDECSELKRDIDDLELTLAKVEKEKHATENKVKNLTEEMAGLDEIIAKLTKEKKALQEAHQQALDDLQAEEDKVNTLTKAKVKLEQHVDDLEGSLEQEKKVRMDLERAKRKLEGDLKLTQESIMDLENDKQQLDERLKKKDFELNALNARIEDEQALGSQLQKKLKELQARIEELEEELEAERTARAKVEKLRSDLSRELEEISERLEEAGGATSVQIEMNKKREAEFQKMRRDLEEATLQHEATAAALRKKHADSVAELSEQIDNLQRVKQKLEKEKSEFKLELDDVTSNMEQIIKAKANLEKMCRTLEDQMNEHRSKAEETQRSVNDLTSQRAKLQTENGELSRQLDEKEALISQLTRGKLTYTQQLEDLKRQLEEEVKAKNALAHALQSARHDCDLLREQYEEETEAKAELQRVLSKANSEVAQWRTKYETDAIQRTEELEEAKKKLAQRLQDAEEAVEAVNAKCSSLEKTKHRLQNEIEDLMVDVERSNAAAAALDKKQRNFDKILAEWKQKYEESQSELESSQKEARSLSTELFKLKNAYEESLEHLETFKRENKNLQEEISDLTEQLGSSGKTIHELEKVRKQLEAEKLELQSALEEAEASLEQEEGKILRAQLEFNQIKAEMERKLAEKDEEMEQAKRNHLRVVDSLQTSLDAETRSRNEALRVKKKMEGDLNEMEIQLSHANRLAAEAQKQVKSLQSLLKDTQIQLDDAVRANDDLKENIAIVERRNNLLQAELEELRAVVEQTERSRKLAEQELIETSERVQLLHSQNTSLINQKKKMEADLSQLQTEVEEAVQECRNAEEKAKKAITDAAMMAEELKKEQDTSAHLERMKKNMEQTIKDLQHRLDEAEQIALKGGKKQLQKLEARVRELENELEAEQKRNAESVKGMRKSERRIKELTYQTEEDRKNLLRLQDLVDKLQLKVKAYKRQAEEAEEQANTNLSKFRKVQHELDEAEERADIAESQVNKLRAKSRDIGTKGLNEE
bovine cardiac myofibrils (full-length cardiac myosin ATPase in the native sarcomere), sequence (P85100 whole entry partner): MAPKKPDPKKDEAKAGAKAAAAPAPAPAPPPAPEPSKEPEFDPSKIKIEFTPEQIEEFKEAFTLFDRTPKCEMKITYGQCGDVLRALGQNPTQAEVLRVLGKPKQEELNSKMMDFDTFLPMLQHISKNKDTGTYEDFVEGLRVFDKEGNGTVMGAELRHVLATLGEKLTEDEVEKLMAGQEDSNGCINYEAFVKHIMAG
bovine cardiac myofibrils (full-length cardiac myosin ATPase in the native sarcomere), sequence (Q3SZE5 whole entry partner): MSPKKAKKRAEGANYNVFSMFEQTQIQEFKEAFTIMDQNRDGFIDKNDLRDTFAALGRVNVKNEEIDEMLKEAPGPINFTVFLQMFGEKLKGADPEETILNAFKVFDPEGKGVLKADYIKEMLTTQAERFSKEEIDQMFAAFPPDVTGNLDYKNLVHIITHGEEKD

On to `CCc1nc(-c2ccc3c(c2)CC[C@H]3NC(=O)c2ccc(=O)n(CC)c2)no1` [Compound 641, (R)-1-ethyl-N-(5-(5-ethyl-1,2,4-oxadiazol-3-yl)-2,3-dihydro-1H-inden-1-yl)-6-oxo-1,6-dihydropyridine-3-carboxamide], for which the “CDMF75 IC15” value worked out at 1.4 µM and the pIC50 is 5.24.
Consider `COCc1nc(-c2ccc3c(c2)CC[C@H]3NC(=O)c2cc(CO)ccc2F)no1` [Compound 671, (R)-2-fluoro-5-(hydroxymethyl)-N-(5-(5-(methoxymethyl)-1,2,4-oxadiazol-3-yl)-2,3-dihydro-1H-inden-1-yl)benzamide], for which the “CDMF75 IC15” value amounted to 6.5 µM and the pIC50 is 4.52.
`CCc1nc(-c2ccc3c(c2)CCC[C@@H]3NC(=O)c2cnn(C)c2)no1` [Compound 516, (S)-N-(6-(5-ethyl-1,2,4-oxadiazol-3-yl)-1,2,3,4-tetrahydronaphthalen-1-yl)-1-methyl-1H-pyrazole-4-carboxamide]: the “CDMF75 IC15” value was found to be 39.2 µM and the negative logarithm of the IC50 (pIC50) is 4.41.
For `Cc1ncc(C(=O)NC2CCc3cc(-c4noc(C(F)F)n4)ccc32)o1` (centres unmarked) [Compound 9, N-(5-(5-(difluoromethyl)-1,2,4-oxadiazol-3-yl)-2,3-dihydro-1H-inden-1-yl)-2-methyloxazole-5-carboxamide] the same measures were 1.4 µM and 5.17.
As for `Cc1csc(C(=O)NC2CCc3cc(-c4noc(C)n4)ccc32)n1` (centres unmarked) [Compound 63, 4-methyl-N-(5-(5-methyl-1,2,4-oxadiazol-3-yl)-2,3-dihydro-1H-inden-1-yl)thiazole-2-carboxamide], the “CDMF75 IC15” value came out at 2.3 µM and the pIC50 is 5.00.
Regarding `CCc1nc(-c2ccc3c(c2)CC[C@H]3NC(=O)c2nnn(Cc3ccccc3)n2)no1` [Compound 501, (R)-2-benzyl-N-(5-(5-ethyl-1,2,4-oxadiazol-3-yl)-2,3-dihydro-1H-inden-1-yl)-2H-tetrazole-5-carboxamide], the “CDMF75 IC15” value is 0.3 µM and the pIC50 is 5.96.
Consider `CCc1cc(-c2ccc3c(c2)CC[C@H]3NC(=O)c2ocnc2C)no1` [Compound 417, (R)-N-(5-(5-ethylisoxazol-3-yl)-2,3-dihydro-1H-inden-1-yl)-4-methyloxazole-5-carboxamide], for which the “CDMF75 IC15” value came out at 0.2 µM and the pIC50 was 6.22.
For `[2H]C([2H])([2H])c1noc(-c2ccc3c(c2)OC[C@H]3NC(=O)c2nnn(C)n2)n1` [Compound 342, (S)-2-methyl-N-(6-(3-(methyl-d3)-1,2,4-oxadiazol-5-yl)-2,3-dihydrobenzofuran-3-yl)-2H-tetrazole-5-carboxamide] the same measures were 8.0 µM and less than 4.41.
In the case of `COCc1nc(-c2ccc3c(c2)CC[C@H]3NC(=O)c2cc(C)nn2C)no1` [Compound 179, (R)-N-(5-(5-(methoxymethyl)-1,2,4-oxadiazol-3-yl)-2,3-dihydro-1H-inden-1-yl)-1,3-dimethyl-1H-pyrazole-5-carboxamide], the “CDMF75 IC15” value came out at 0.7 µM and the pIC50 was 5.66.
Regarding `O=C(N[C@@H]1CCc2cc(-c3noc(C4CC4)n3)ccc21)C(F)F` [Compound 439, (R)-N-(5-(5-cyclopropyl-1,2,4-oxadiazol-3-yl)-2,3-dihydro-1H-inden-1-yl)-2,2-difluoroacetamide], the “CDMF75 IC15” value stood at 1.1 µM and the pIC50 was 5.32.
